The source of these data is ChEMBL document CHEMBL2062464, “Allosteric modulation of seven transmembrane spanning receptors: theory, practice, and opportunities for central nervous system drug discovery” (J Med Chem, 2012).

Broadly, the pKb is −log10 of the Kb, conventionally taken in molar units. In general, IC50 refers to the concentration at which inhibition is half-maximal. Broadly, the EC50 is the concentration giving half of the maximal effect. Read a high EC50 as a less potent agent. The term Emax denotes the size of the effect at its maximum, as opposed to the concentration needed.

Assay [1] addresses T1, Adenosine receptor A1 (Homo sapiens) (UniProt P30542).
T1 sequence (whole entry): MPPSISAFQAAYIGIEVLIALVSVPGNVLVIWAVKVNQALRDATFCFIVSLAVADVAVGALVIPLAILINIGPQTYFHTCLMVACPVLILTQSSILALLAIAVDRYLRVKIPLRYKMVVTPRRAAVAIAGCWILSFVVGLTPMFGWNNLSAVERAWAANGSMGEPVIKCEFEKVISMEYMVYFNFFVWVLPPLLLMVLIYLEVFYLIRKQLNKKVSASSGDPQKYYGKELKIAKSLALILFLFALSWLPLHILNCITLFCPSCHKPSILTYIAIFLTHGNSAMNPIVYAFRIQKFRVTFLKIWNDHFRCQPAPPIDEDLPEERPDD
Put plainly: Allosteric modulation at adenosine A1 receptor assessed as receptor mediated ERK1/2 phosphorylation.

For assay [2], the target named is T2, Metabotropic glutamate receptor 5 (Homo sapiens, UniProt P41594). In words: Negative allosteric modulation activity at mGlu5 receptor.
Target sequence in this assay (P41594 whole entry): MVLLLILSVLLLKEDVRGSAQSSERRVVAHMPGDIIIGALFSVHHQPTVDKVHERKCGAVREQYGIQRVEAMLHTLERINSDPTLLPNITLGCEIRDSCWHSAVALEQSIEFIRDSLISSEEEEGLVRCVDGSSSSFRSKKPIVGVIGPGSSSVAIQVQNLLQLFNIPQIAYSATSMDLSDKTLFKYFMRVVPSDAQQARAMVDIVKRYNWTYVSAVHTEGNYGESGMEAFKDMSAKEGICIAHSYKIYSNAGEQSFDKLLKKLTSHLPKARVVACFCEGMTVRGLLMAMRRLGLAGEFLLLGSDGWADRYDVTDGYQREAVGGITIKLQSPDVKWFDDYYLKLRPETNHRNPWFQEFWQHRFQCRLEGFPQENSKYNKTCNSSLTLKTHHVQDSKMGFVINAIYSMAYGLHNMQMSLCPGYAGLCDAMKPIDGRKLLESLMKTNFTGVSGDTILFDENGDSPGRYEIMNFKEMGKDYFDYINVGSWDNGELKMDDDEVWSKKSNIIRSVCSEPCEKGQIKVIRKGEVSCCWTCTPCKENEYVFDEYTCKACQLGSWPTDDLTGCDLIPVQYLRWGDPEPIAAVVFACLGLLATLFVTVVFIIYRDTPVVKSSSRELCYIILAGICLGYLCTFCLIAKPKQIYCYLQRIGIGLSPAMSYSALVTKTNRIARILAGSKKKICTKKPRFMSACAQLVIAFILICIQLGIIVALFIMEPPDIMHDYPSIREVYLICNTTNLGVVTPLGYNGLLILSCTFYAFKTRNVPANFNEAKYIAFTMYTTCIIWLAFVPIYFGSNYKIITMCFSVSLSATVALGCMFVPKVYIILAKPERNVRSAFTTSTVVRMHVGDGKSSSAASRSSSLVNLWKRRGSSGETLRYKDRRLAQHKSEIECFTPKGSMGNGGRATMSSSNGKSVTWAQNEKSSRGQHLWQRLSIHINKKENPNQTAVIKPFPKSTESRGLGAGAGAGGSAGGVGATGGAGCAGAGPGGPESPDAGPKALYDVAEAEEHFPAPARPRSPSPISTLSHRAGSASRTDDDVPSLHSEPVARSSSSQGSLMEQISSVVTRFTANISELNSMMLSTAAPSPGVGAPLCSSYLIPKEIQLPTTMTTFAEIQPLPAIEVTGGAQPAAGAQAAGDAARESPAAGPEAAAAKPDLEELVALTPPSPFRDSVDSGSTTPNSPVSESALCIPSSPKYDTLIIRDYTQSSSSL
Assay [3] has as its target T2, Metabotropic glutamate receptor 5. Put plainly: Positive allosteric modulation activity at mGlu5 receptor.
Target sequence in this assay (P41594 whole entry): as above
Assay [4] has the same target. In words: Positive allosteric modulation activity at mGlu5 receptor relative to glutamate.
Target sequence in this assay (P41594 21-1212 limits assumed): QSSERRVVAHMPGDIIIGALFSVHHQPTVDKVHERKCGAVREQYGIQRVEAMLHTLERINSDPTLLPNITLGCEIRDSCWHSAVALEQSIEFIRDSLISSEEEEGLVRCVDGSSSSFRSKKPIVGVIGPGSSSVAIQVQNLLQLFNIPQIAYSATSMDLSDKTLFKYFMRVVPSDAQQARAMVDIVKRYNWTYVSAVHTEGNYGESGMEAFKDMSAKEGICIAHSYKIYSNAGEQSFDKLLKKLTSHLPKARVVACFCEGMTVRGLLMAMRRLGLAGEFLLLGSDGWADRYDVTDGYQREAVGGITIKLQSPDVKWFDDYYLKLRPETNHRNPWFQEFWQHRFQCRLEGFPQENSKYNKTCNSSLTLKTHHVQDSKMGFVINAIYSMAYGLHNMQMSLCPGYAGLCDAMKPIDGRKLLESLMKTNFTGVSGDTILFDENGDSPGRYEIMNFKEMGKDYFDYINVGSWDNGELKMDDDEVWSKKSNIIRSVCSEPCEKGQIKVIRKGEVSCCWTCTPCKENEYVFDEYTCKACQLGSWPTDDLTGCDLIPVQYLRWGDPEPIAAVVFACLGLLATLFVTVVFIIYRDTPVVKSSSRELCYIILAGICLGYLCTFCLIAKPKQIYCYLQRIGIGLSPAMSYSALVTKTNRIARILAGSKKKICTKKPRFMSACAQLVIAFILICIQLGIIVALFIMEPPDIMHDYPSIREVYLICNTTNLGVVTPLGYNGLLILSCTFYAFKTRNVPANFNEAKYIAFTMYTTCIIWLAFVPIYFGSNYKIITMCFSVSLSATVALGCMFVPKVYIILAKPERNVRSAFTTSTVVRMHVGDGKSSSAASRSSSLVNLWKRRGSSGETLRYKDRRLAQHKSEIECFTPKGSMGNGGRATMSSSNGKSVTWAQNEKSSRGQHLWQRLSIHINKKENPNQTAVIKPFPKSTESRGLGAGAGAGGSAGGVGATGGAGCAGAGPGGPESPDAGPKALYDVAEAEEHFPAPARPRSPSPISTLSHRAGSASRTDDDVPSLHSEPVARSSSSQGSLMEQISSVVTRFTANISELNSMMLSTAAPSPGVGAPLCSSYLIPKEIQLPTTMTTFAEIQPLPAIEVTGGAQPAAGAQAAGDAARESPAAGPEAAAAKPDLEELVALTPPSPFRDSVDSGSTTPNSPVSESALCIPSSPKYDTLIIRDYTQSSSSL
The target of assay [5] is Metabotropic glutamate receptor 6 (Homo sapiens, UniProt O15303). In words: Positive allosteric modulation activity at mGlu6 receptor.
Sequence of Metabotropic glutamate receptor 6 (O15303 whole entry): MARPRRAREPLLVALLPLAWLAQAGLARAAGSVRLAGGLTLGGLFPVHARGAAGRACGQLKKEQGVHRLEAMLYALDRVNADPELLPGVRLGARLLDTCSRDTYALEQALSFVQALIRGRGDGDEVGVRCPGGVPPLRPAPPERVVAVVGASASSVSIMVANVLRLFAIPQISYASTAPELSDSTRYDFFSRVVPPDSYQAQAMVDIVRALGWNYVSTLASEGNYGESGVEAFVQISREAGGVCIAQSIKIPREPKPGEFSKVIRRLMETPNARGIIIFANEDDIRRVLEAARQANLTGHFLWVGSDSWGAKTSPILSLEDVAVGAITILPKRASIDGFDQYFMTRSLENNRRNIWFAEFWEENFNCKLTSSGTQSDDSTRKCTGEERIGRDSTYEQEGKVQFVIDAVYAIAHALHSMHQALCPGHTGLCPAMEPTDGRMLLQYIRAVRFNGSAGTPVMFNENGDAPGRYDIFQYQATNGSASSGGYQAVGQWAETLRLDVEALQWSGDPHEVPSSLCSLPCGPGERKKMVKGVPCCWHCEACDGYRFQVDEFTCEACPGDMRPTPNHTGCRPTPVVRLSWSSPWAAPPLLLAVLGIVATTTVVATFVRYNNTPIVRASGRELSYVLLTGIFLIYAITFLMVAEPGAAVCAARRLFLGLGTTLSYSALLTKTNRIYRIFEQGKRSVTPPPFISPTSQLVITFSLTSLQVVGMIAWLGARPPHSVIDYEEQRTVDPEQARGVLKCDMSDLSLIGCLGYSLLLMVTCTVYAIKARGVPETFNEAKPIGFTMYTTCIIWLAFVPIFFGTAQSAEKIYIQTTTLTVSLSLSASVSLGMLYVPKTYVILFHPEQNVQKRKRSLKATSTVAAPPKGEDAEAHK
Assay [6] deals with Metabotropic glutamate receptor 7 (Homo sapiens, UniProt Q14831). Put plainly: Positive allosteric modulation activity at mGlu7 receptor.
The target in assay [7] is Metabotropic glutamate receptor 2 (Homo sapiens, UniProt Q14416). Put plainly: Positive allosteric modulation activity at mGlu2 receptor.
Assay [8] deals with Metabotropic glutamate receptor 8 (Homo sapiens, UniProt O00222). Put plainly: Positive allosteric modulation activity at mGlu8 receptor.
The target of assay [9] is Metabotropic glutamate receptor 1 (Homo sapiens, UniProt Q13255). Put plainly: Positive allosteric modulation activity at mGlu1 receptor.
The target of assay [10] is Metabotropic glutamate receptor 4 (Homo sapiens) (UniProt Q14833). Put plainly: Positive allosteric modulation activity at mGlu4 receptor relative to glutamate.
Assay [11] deals with Metabotropic glutamate receptor 3 (Homo sapiens, UniProt Q14832). In words: Positive allosteric modulation activity at mGlu3 receptor.
Sequence of Metabotropic glutamate receptor 3 (Q14832 whole entry): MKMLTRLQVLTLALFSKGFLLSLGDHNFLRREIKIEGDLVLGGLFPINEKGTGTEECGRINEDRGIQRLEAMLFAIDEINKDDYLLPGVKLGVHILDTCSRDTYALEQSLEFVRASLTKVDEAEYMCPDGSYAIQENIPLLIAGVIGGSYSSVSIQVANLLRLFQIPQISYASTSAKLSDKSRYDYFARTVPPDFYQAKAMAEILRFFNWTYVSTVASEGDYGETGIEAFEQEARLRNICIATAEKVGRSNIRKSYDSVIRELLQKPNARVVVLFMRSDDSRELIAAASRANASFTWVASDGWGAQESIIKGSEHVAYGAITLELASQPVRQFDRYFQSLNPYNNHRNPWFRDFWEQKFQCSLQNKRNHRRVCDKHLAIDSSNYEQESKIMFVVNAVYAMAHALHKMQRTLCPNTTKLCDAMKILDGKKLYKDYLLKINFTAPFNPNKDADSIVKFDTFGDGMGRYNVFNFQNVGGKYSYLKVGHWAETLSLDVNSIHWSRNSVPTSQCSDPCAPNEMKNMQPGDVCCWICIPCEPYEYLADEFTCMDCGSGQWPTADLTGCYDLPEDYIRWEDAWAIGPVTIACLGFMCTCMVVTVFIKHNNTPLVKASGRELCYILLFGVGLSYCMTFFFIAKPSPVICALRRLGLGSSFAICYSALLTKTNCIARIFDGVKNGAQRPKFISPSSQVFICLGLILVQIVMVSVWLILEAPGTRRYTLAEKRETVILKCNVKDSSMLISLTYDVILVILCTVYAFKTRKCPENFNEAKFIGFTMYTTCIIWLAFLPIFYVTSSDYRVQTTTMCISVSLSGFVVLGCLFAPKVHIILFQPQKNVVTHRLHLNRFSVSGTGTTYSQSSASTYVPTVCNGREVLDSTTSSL
The target of assay [12] is T3, Muscarinic acetylcholine receptor M5 (Homo sapiens) (UniProt P08912).
T3 sequence (whole entry): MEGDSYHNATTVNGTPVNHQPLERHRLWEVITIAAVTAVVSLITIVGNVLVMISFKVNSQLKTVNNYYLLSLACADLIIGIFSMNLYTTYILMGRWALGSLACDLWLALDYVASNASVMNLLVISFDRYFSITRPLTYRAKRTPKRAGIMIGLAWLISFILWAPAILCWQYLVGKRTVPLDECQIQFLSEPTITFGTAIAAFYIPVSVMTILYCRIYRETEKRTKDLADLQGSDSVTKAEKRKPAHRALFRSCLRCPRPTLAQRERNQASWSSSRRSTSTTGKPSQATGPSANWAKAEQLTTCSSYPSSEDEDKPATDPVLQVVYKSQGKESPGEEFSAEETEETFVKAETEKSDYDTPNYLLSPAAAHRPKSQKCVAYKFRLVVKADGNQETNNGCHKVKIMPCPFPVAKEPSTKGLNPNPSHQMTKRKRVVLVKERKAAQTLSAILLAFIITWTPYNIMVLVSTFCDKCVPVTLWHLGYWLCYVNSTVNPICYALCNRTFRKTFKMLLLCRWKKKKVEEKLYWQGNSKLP
In words: Positive allosteric modulation activity at muscarinic M5 receptor relative to acetylcholine.

For assay [13], the target named is T4, Muscarinic acetylcholine receptor M1 (Homo sapiens, UniProt P11229).
T4 sequence (P11229 whole entry): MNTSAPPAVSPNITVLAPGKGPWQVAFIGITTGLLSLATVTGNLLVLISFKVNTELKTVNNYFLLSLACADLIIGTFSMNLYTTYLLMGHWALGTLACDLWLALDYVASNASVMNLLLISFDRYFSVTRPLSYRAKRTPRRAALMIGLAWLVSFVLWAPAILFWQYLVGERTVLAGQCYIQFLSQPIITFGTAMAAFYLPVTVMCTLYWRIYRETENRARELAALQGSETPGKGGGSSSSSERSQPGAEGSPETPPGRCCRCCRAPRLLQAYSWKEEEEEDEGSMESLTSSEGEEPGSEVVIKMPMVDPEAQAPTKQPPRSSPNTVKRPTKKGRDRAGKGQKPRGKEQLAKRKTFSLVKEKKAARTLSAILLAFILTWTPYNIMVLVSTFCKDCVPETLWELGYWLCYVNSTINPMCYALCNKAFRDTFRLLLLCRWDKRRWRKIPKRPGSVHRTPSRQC
In words: Positive allosteric modulation activity at muscarinic M1 receptor.

The target of assay [14] is T5, Muscarinic acetylcholine receptor M1 (Homo sapiens) (UniProt P11229).
T5 sequence (whole entry): T4 sequence (P11229 whole entry)
Put plainly: Positive allosteric modulation activity at muscarinic M1 receptor relative to acetylcholine.

The target of assay [15] is Muscarinic acetylcholine receptor M3 (Homo sapiens) (UniProt P20309). Put plainly: Positive allosteric modulation activity at muscarinic M3 receptor relative to acetylcholine.
Sequence of Muscarinic acetylcholine receptor M3 (Homo sapiens) (P20309 whole entry, looked up): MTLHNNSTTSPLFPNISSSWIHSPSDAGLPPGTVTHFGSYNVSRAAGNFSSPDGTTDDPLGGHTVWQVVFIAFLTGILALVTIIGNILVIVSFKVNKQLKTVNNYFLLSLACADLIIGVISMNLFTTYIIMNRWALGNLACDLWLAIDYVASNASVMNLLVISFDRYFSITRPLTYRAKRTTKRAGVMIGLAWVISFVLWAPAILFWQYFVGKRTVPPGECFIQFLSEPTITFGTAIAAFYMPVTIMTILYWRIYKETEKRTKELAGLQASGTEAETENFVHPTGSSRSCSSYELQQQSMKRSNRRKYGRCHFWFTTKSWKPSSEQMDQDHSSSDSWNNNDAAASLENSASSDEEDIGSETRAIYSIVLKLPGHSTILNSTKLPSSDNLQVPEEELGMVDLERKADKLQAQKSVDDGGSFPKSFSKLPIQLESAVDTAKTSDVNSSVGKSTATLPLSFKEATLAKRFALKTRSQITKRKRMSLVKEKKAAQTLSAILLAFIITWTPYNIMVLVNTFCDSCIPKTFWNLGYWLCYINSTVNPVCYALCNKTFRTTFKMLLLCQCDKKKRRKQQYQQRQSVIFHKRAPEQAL

Each structure is given as a SMILES string. Bounds are passed on as bounds.

`Nc1sc2c(c1C(=O)c1ccc(Cl)cc1)CC1C=CC(C(F)(F)F)=CC1C2` (stereo unspecified): the pKb in assay [1] was 5.11.
`C(#Cc1cncnc1)c1ccccc1` showed an IC50 in assay [2] of 486 nM.
In [3], `Cc1ccc(C#Cc2cncnc2)cc1` came in with an EC50 of 3.3 µM. This molecule came in with a maximal effect (Emax) in assay [4] of 99%.
As for `Nc1sc(-c2cncnc2)cc1C(=O)c1ccccc1`, in assay [1], the pKb is 5.82.
Same read-out and setting: under `Nc1scc(-c2cc(C(F)(F)F)cc(C(F)(F)F)c2)c1C(=O)c1ccc(Cl)cc1` stands 5.46; under `CCOC(=O)c1c(N)sc2c1CCN(C(=O)OC(C)(C)C)CC2`, 6.07.
In [2], `Cc1cccc(C#Cc2cncnc2)c1` displayed an IC50 of 7.5 nM.
Take `CNc1ncc(C#Cc2ccccc2)cn1`: the maximal effect (Emax) in assay [4] is 128%.
For the molecule `O=C(Nc1ccccn1)[C@]12C[C@H]1/C(=N\O)c1ccccc1O2`, the 50% effective concentration (EC50) in assay [3], in assay [5], in assay [6], in assay [7], in assay [8] and in assay [9] was over 30 µM in each case. Further, the EC50 in [11] is over 30 µM. The same molecule had a maximum response (Emax) in assay [10] of 121%.
In the case of `COc1ccc(CN2C(=O)C(=O)c3cc(OC(F)(F)F)ccc32)cc1`, the maximal response (Emax) in [12] is 91%.
With `O=C(O)c1cn(Cc2ccc(-c3ccccc3)cc2)c2c(F)cccc2c1=O`, the half-maximal effective concentration (EC50) in assay [13] was 380 nM.
`Nc1sc(-c2ccccc2)cc1C(=O)c1ccccc1`: in [1], the negative-log Kb (pKb) was determined as 6.36.
`O=C(O)c1cn(Cc2ccc(-c3ccccc3)cc2)c2cccc(F)c2c1=O` gave an EC50 in assay [13] of 84 nM.
Take `Nc1scc(-c2cccc(F)c2)c1C(=O)c1ccc(Cl)cc1`: the pKb in assay [1] turned out to be 5.88.
In assay [13], `O=C(O)c1cn(Cc2ccc(-c3ccccc3)cc2)c2c(F)ccc(F)c2c1=O` gave a concentration for a half-maximal effect (EC50) of 270 nM.
`Cn1cc(-c2ccc(CN3C(=O)C(=O)c4ccccc43)c(F)c2)cn1` displayed a maximal response (Emax) in assay [14] of 65%.
As to `Cn1cc(-c2ccc(Cn3cc(C(=O)O)c(=O)c4c(F)cccc43)c(F)c2)cn1`, in assay [13], a half-maximal response (EC50) required 41 nM.
Consider `Nc1sc2c(c1C(=O)c1ccccc1)CCCCCC2`, for which, in assay [1], the negative-log Kb (pKb) worked out at 5.08.
In the case of `Nc1sc(-c2cncnc2)c2c1C(=O)c1ccccc1-2`, the pKb in [1] came out at 6.67.
In the case of `Nc1scc(-c2cccc(C(F)(F)F)c2)c1C(=O)c1ccccc1`, the negative-log Kb (pKb) in assay [1] was found to be 6.37.
For the molecule `Cc1ccc(C(=O)c2c(N)sc3c2CCCC3)cc1`, in [1], the negative-log Kb (pKb) is 5.1.
Take `Nc1scc(-c2cc(C(F)(F)F)cc(C(F)(F)F)c2)c1C(=O)c1ccccc1`: in assay [1], the pKb came to 5.22.
On to `Nc1sc2c(c1C(=O)c1ccc(Cl)cc1)CC1C=C(C(F)(F)F)C=CC1C2` (stereo unspecified), for which the pKb in [1] is 5.12.
With `O=C1C(=O)N(Cc2ccc(Oc3ccccc3)cc2)c2ccc(OC(F)(F)F)cc21`, the Emax in assay [12] amounted to 75%.
Take `CCOC(=O)c1nn(-c2cccc(Cl)c2)c(=O)c2c(N)scc12`: in assay [1], the pKb turned out to be 8.3.
For the molecule `Nc1scc(-c2ccccc2F)c1C(=O)c1ccc(Cl)cc1`, the negative-log Kb (pKb) in [1] came to 5.1.
Regarding `O=C1C(=O)N(Cc2ccc(Br)cc2)c2ccccc21`, the maximal response (Emax) stood at 74% in [12], 82% in assay [14] and 66% in [15].
For the molecule `Nc1sc2c(c1C(=O)c1ccc(Cl)cc1)CC1C=CC=CC1C2` (stereo unspecified), the negative-log Kb (pKb) in assay [1] is 6.01.
For `Nc1scc(-c2cccc(C(F)(F)F)c2)c1C(=O)c1ccc(Cl)cc1`, the pKb in assay [1] worked out at 5.74.
`CC(C)(C)OC(=O)N1CCc2sc(N)c(C(=O)c3ccc(Cl)cc3)c2CC1`: the pKb in [1] came out at 5.23.
The same measure, in the same setting: under `Nc1sc2c(c1C(=O)c1ccc(Cl)cc1)CCCC2` stands 5.49.
